Measured values published in US20100137315A1, “Sphingosine Kinase Inhibitors and Methods of Their Use” (APOGEE BIOTECHNOLOGY CORPORATION, priority 2005, published 2010).

Experiments:
[1] = tested on: diverse panel of 20 purified kinases; assay: Kinase selectivity panel, overall statement; type: biochemical; conditions: 50 μM
Description: A common problem with previous attempts to develop protein kinase inhibitors is the lack of selectivity toward the target kinase since the majority of these compounds interact with nucleotide-binding domains that are highly conserved among kinases. To determine if compound of this invention are non-selective kinase inhibitors, the effects of the SK inhibitor, Compound 73, on a diverse panel of 20 purified kinases was determined. The compound was tested at a single concentration of 50 μM.
The panel included both serine/threonine kinases and tyrosine kinases, as well as several that are regulated by their interaction with lipids.

[2] = tested on: mice; assay: Chronic DSS-colitis model of IBD (35-day); type: in vivo, mouse
Description: FIG. 8. Effects of Compound 8 on the […] (DAI) in the chronic DSS-colitis model. Mice received 2 cycles (7 days per cycle) of DSS (1.5% cycle 1 and 1% cycle 2), 2 cycles of normal drinking water and were randomized by DAI on Day 28 into groups of 8 mice. The mice were then treated as follows: No DSS (▪)— normal drinking water and orally dosed with PEG400 every day for 7 days (water control); DSS alone (▴)— drinking water containing 1.5% DSS and orally dosed with PEG daily for 7 days; DSS+Compound 8 (▾)-drinking water containing 1.5% DSS and orally dosed with Compound 8 (50 mg/kg) every day for 7 days; DSS+Dipentum (♦)— drinking water containing 1.5% DSS and orally dosed with Dipentum (50 mg/kg). *p<0.001 versus No DSS group.
FIG. 9. Effects of Compound 8 on S1P levels in the colons of the animals in the chronic DSS-colitis model. Colon samples from mice described in FIG. 8 were extracted and assayed for the levels of S1P by LC/MS/MS. Values represent the mean±sd for 8 samples per group; * p<0.05 versus No DSS group.
A 35-day model of IBD was used to evaluate the effectiveness of the SK inhibitor in mice that experience multiple cycles of DSS-induced inflammation. This chronic model is similar to the acute model, except that the DSS concentration in the drinking water is lower and animals receive periodic exposure to DSS (DSS on days 1-7, water on Days 8-13, DSS on day 14-21, water on Days 22-27 and then DSS until the completion of the study on Day 35). In these experiments, treatment of the mice with an SK inhibitor or Dipentum began on Day 28 and continued daily until the completion of the study. The DAI index was monitored every other day until Day 28 and then daily until Day 35. Animals were sacrificed on Day 35, and changes in the colon length and cytokine profiles were measured.
As a final measure of the effects of the SK inhibitors in this chronic model, S1P levels were assayed in the colons of the DSS-treated animals using an LC-MS/MS method. […] Ratios of analyte to internal standard for each sphingolipid were determined. […]

[3] = tested on: female DBA/1 mice; assay: Collagen-Induced Arthritis model; type: in vivo, mouse; conditions: 50 mg/kg orally
Description: FIG. 10. Effects of Compound 8 on disease progression in the collagen-induced arthritis (CIA) model in mice. Female DBA/1 mice were injected with collagen, boosted after 3 weeks and then monitored for symptoms of arthritis. Upon disease manifestation, groups of mice were treated for 12 days as follows: (▴) Compound 8 (50 mg/kg given orally each day for 6 days per week); or (▪) vehicle (PEG400 given under the same schedule). On the indicated Day of treatment, the average clinical score (A) and the average hind paw diameter (B) was determined. * p<0.05 versus PEG400 alone group.
The anti-arthritis activities of the SK inhibitor Compound 8 were assessed in the Collagen-Induced Arthritis model. Female DBA/1 mice were injected subcutaneously in the tail with chicken immunization-grade type II collagen emulsified in complete Freund's adjuvant at 2 mg/mL. Three weeks later, the mice received a collagen booster in incomplete Freund's adjuvant and were monitored daily thereafter for arthritic symptoms. Once mice reached a threshold paw thickness and clinical score, they were randomized into the following treatment groups: Compound 8 (50 mg/kg given orally each day for 6 days per week) or vehicle (Polyethyleneglycol 400 given under the same schedule). The severity of disease in each animal was quantified by measurement of the hind paw volume with digital calipers. Each paw was scored based upon perceived inflammatory activity, in which each paw receives a score of 0-3 as follows: 0=normal; 1=mild, but definite redness and swelling of the ankle or wrist, or apparent redness and swelling limited to individual digits, regardless of the number of affected digits; 2=moderate redness and swelling of the ankle and wrist and 3=severe redness and swelling of the entire paw including digits, with an overall score ranging from 0-12. Differences among treatment groups were tested using ANOVA.
On Day 12, the mice were euthanized and their hind limbs were removed, stripped of skin and muscle, formalin-fixed, decalcified and paraffin-embedded. The limbs were then sectioned and stained with hematoxylin/eosin. Tibiotarsal joints were evaluated histologically for severity of inflammation and synovial hyperplasia.

SMILES | inhibition of the 20 kinases of the panel [1] | colon length ([2]; 50 mg/kg oral daily Days 28-35, Day 35) [cm] | increase in DAI during third DSS exposure ([2]; 50 mg/kg oral daily Days 28-35, P<0.001 on Day 35) | S1P levels in colon (LC-MS/MS) ([2]; oral 50 mg/kg daily, 7 days prior to sacrifice) | reduction in clinical score vs vehicle ([3]; 6 days per week, Day 12) [%] | reduction in the increase in hind paw thickness vs vehicle ([3]; 6 days per week, Day 12) [%] | histologic damage of tibiotarsal joints ([3]; Day 12) | inflammation response (Average Clinical Score, Average Hind Paw Diameter) ([3]; significant decreases beginning at Day 4)
Clc1ccc(-c2csc(NCc3ccccc3)n2)cc1 [Compound 73, Benzyl-[4-(4-chloro-phenyl)-thiazol-2-yl]-amine] | none of the 20 diverse kinases tested were significantly inhibited |  |  |  |  |  |  | 
CCCC(=O)Oc1ccc(C=CC(=O)Nc2nc(-c3ccc(Cl)cc3)cs2)cc1OC [Compound 8, Butyric acid 4-{2-[4-(4-chloro-phenyl)-thiazol-2-ylcarbamoyl]-vinyl}-2-methoxy-phenyl ester] |  | 5.8±0.1 | significantly suppressed | significant reductions | 65 | 72 | significantly reduced | dramatically slowed
